Measured values reported in ChEMBL document CHEMBL1201862, “PubChem BioAssay data set” (2004).
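96-well plates; 48 h exposure; 5 concentrations. Endpoints by linear interpolation between flanking doses. Not reached: highest tested concentration assigned. Abbreviation: GI50, concentration required for 50% inhibition of growth.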 Active and inactive are the calls of the source. Cut-off read from the data, not from the text of the source: active = GI50 up to about 1.1 µM and inactive = higher.

What was measured:
Assay in all cases: DTP human tumour cell line panel, 48 h
HOP-92 = system: HOP-92
SK-MEL-5 = system: SK-MEL-5
TK-10 = system: TK-10
SF-268 = system: SF-268
RXF 393 = system: RXF 393
Malme-3M = system: Malme-3M
HCT-116 = system: HCT-116
MDA-MB-435 = system: MDA-MB-435
T47D = system: T47D
CCRF-CEM = system: CCRF-CEM
IGROV-1 = system: IGROV-1
SK-OV-3 = system: SK-OV-3
NCI-H522 = system: NCI-H522
KM12 = system: KM12
SF-539 = system: SF-539
NCI-H23 = system: NCI-H23
SNB-75 = system: SNB-75
MDA-N = system: MDA-N
HCT-15 = system: HCT-15
PC-3 = system: PC-3

Row | SMILES | GI50 (HOP-92) | GI50 (SK-MEL-5) | GI50 (TK-10) | GI50 (SF-268) | GI50 (RXF 393) | GI50 (Malme-3M) | GI50 (HCT-116) | GI50 (MDA-MB-435) | GI50 (T47D) | GI50 (CCRF-CEM) | GI50 (IGROV-1) | GI50 (SK-OV-3) | GI50 (NCI-H522) | GI50 (KM12) | GI50 (SF-539) | GI50 (NCI-H23) | GI50 (SNB-75) | GI50 (MDA-N) | GI50 (HCT-15) [µM] | GI50 (PC-3)
1 | C[n+]1cn(-c2nc3ccccc3nc2[N-]S(=O)(=O)c2ccccc2)c2ccccc21 | > 100 µM (inactive) | > 100 µM (inactive) | > 100 µM (inactive) | > 100 µM (inactive) | 62.2 µM (inactive) | > 100 µM (inactive) | > 100 µM (inactive) | > 100 µM (inactive) | > 100 µM (inactive) | > 100 µM (inactive) | > 100 µM (inactive) | > 100 µM (inactive) | 0.222 µM (active) | > 100 µM (inactive) | > 100 µM (inactive) | > 100 µM (inactive) | > 100 µM (inactive) | > 100 µM (inactive) | > 100 | > 100 µM (inactive)
2 | Cn1/c(=N\N=C2\C=C3CCCCC3(C)CC2)sc2ccccc21 (stereo not given) | > 100 µM (inactive) | > 100 µM (inactive) | > 100 µM (inactive) | > 100 µM (inactive) | > 100 µM (inactive) | > 100 µM (inactive) | > 100 µM (inactive) | > 100 µM (inactive) | > 100 µM (inactive) | 55.2 µM (inactive) | > 100 µM (inactive) | > 100 µM (inactive) | > 100 µM (inactive) | > 100 µM (inactive) | > 100 µM (inactive) | > 100 µM (inactive) | 47.1 µM (inactive) | > 100 µM (inactive) | > 100 | > 100 µM (inactive)
3 | CCC[N+](C)(C)CCCNC(=O)c1c(O)c2ccccc2[nH]c1=O | > 100 µM (inactive) | 15.9 µM (inactive) | > 100 µM (inactive) | > 100 µM (inactive) | > 100 µM (inactive) | 24.3 µM (inactive) | > 100 µM (inactive) | > 100 µM (inactive) | > 100 µM (inactive) | > 100 µM (inactive) | 89.1 µM (inactive) | > 100 µM (inactive) | > 100 µM (inactive) | > 100 µM (inactive) | > 100 µM (inactive) | > 100 µM (inactive) | > 100 µM (inactive) | > 100 µM (inactive) | > 100 | > 100 µM (inactive)
4 | O=C1c2ccccc2C(=O)c2c1oc1cc(O)c(Cl)cc21 | 8.13 µM (inactive) | 0.299 µM (active) | 20.9 µM (inactive) | 10.8 µM (inactive) | 9.46 µM (inactive) | 1.07 µM (active) | 5.27 µM (inactive) | 1.81 µM (inactive) | 16.5 µM (inactive) | 8.71 µM (inactive) | 10.1 µM (inactive) | 17.2 µM (inactive) | 9.42 µM (inactive) | 6.35 µM (inactive) | 5.41 µM (inactive) | 0.519 µM (active) | 2.88 µM (inactive) | 1.75 µM (inactive) | 4.66 | 10.4 µM (inactive)
5 | O=S(=O)(O)c1ccc(Nc2ccnc3ccccc23)cc1 | > 100 µM (inactive) | > 100 µM (inactive) | > 100 µM (inactive) | > 100 µM (inactive) | > 100 µM (inactive) | > 100 µM (inactive) | > 100 µM (inactive) | > 100 µM (inactive) | > 100 µM (inactive) | > 100 µM (inactive) | > 100 µM (inactive) | > 100 µM (inactive) | > 100 µM (inactive) | > 100 µM (inactive) | > 100 µM (inactive) | > 100 µM (inactive) | > 100 µM (inactive) | > 100 µM (inactive) | > 100 | > 100 µM (inactive)
